Legend:
oryza sativa L. (rice) = experiment: activity on agrarian species, soil treatment one day after sowing; type: in vivo
Method in brief: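 Pre-emergence soil treatment of rice applied one day after sowing at 1, 3, 6, 8, 10, 12 and 14 kg/ha. Crop injury scored against untreated control on a 0–4 scale, 4 being no germination or total containment at emergence; intermediate activity recorded as both adjacent classes.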

rice [1] = experiment: plot-test in open field planted with rice; type: in vivo; settings: even at 30 kg/ha of active substance
[2] = tested on: Hordeum vulgare L. (barley); experiment: activity of PA 106 on useful species; type: in vivo
Source text: (§1) Method of evaluation of the results (of tests):
(§2) 0 = no activity and no difference with respect to the control;
(§3) 1 slight differences with respect to the control;
(§4) 3 = considerable activity with damages that definitely impair the further development of most of the small plants; an activity degree already useful for practical purposes;
(§5) 4 = maximum of activity with lack of germination or total containment of the small plants in the emerging stage.
(§6) In the case of an intermediate activity between two classes of the scale, both values are recorded with the one which corresponds to the preeminent activity preceding.
(§7) TABLE 3 reports data on the herbicidal activity against infesting herbs, while TABLE 4 reports data concerning the activity on useful species of agricultural cultivations. These tables employ the criterion explained previously. The product was spread on the soil one day after sowing, in quantities of 1, 3, 6, 8, 10, 12 and 14 kg/ha.

Soja Hispida L. (soya) = experiment: activity of PA 106 on useful species; type: in vivo
Source text: as §1, §2, §3, §4, §5, §6, §7

[3] = tested on: Brassica oleracea, L. (cabbage); experiment: activity of PA 106 on useful species; type: in vivo
Source text: as §1, §2, §3, §4, §5, §6, §7

Brassica napus L. colza = experiment: activity of PA 106 on useful species; type: in vivo
Source text: as §1, §2, §3, §4, §5, §6, §7

zea mais L. (corn) = experiment: activity on agrarian species, soil treatment one day after sowing; type: in vivo
Method in brief: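 Pre-emergence soil application one day after sowing at 1, 3, 6, 8, 10, 12 and 14 kg/ha. Crop damage scored visually against untreated control on a 0–4 scale (0 = no effect, 4 = no germination or total containment at emergence); intermediate effects recorded with both scores.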

avena sativa (oats) = experiment: as above; type: in vivo, Avena sativa L.
[4] = tested on: beta vulgaris L. (sugar-beet); experiment: as above; type: in vivo
Source text: The infesting species and the agrarian species have been indicated in Table 1 by letters, as follows:
H = beta vulgaris L. (sugar-beet)
as §1, §2, §3, §4, §5, §6
TABLE 2 reports the activity data of other compounds that fall within the class which is the object of this invention.
as §7

rice [5] = experiment: Example 3 rice field test, granular composition; type: in vivo; settings: 4, 6, 8 and 10 kg/ha
Description: (§8) In this test a granular composition of PA 106 containing 5% of active principle and 95% of bentonite was used. The treatment was carried out in a rice field with areas of from 900 to 1000 sq.m on naked soil flooded just shortly before the sowing of the rice. There were used doses of granulate equal to 4, 6, 8 and 10 kg of active substance per hectar of surface.

Echinocloa crus-galli = experiment: Example 3 rice field test, granular composition; type: in vivo; settings: 6 kg of PA 106 per hectar
Description: as §8

setaria glauca L. = experiment: herbicidal activity, soil treatment one day after sowing; type: in vivo
chenopodium album L. = experiment: as above; type: in vivo
artemisia vulgaris L. = experiment: as above; type: in vivo
pisum sativum L. (pea) = experiment: activity on agrarian species, soil treatment one day after sowing; type: in vivo

CCC(C)N(C(=O)c1ccc(Cl)c(Cl)c1)C(C)CC (stereo not drawn) [PA106, 3,4-dichloro-N,N-di-sec.butyl-benzamide]
activity on useful species, Table 4 (oryza sativa L. (rice); 1 kg/ha): 0
activity on useful species, Table 4 (oryza sativa L. (rice); 3 kg/ha): 0
activity on P, 0-4 scale (oryza sativa L. (rice); 6 kg/ha): 0
activity on useful species, Table 4 (oryza sativa L. (rice); 6 kg/ha): 0
activity on useful species, Table 4 (oryza sativa L. (rice); 8 kg/ha): 0
activity on useful species, Table 4 (oryza sativa L. (rice); 10 kg/ha): 0
activity on useful species, Table 4 (oryza sativa L. (rice); 12 kg/ha): 0
activity on useful species, Table 4 (oryza sativa L. (rice); 14 kg/ha): 0/1
phytotoxic effects on the rice (rice [1]): no phytotoxic effects
activity on useful species, Table 4 ([2]; 1 kg/ha): 0
activity on useful species, Table 4 ([2]; 3 kg/ha): 0
activity on useful species, Table 4 ([2]; 6 kg/ha): 0
activity on useful species, Table 4 ([2]; 8 kg/ha): 0
activity on useful species, Table 4 ([2]; 10 kg/ha): 0/1
activity on useful species, Table 4 ([2]; 12 kg/ha): 0/1
activity on useful species, Table 4 ([2]; 14 kg/ha): 0/1
activity on useful species, Table 4 (Soja Hispida L. (soya); 1 kg/ha): 0
activity on useful species, Table 4 (Soja Hispida L. (soya); 3 kg/ha): 0
activity on useful species, Table 4 (Soja Hispida L. (soya); 6 kg/ha): 0
activity on useful species, Table 4 (Soja Hispida L. (soya); 8 kg/ha): 0
activity on useful species, Table 4 (Soja Hispida L. (soya); 10 kg/ha): 0/1
activity on useful species, Table 4 (Soja Hispida L. (soya); 12 kg/ha): 0/1
activity on useful species, Table 4 (Soja Hispida L. (soya); 14 kg/ha): 0/1
activity on useful species, Table 4 ([3]; 1 kg/ha): 0
activity on useful species, Table 4 ([3]; 3 kg/ha): 0
activity on useful species, Table 4 ([3]; 6 kg/ha): 0/1
activity on useful species, Table 4 ([3]; 8 kg/ha): 1
activity on useful species, Table 4 ([3]; 10 kg/ha): 1/2
activity on useful species, Table 4 ([3]; 12 kg/ha): 1/2
activity on useful species, Table 4 ([3]; 14 kg/ha): 2
activity on useful species, Table 4 (Brassica napus L. colza; 1 kg/ha): 0
activity on useful species, Table 4 (Brassica napus L. colza; 3 kg/ha): 0
activity on useful species, Table 4 (Brassica napus L. colza; 6 kg/ha): 1
activity on useful species, Table 4 (Brassica napus L. colza; 8 kg/ha): 1/2
activity on useful species, Table 4 (Brassica napus L. colza; 10 kg/ha): 2/3
activity on useful species, Table 4 (Brassica napus L. colza; 12 kg/ha): 3
activity on useful species, Table 4 (Brassica napus L. colza; 14 kg/ha): 3
activity on useful species, Table 4 (zea mais L. (corn); 1 kg/ha): 0
activity on useful species, Table 4 (zea mais L. (corn); 3 kg/ha): 0
activity on O, 0-4 scale (zea mais L. (corn); 6 kg/ha): 0
activity on useful species, Table 4 (zea mais L. (corn); 6 kg/ha): 0
activity on useful species, Table 4 (zea mais L. (corn); 8 kg/ha): 0
activity on useful species, Table 4 (zea mais L. (corn); 10 kg/ha): 0
activity on useful species, Table 4 (zea mais L. (corn); 12 kg/ha): 0/1
activity on useful species, Table 4 (zea mais L. (corn); 14 kg/ha): 1
activity on useful species, Table 4 (avena sativa (oats); 1 kg/ha): 0
activity on useful species, Table 4 (avena sativa (oats); 3 kg/ha): 0
activity on G, 0-4 scale (avena sativa (oats); 6 kg/ha): 0
activity on useful species, Table 4 (avena sativa (oats); 6 kg/ha): 0
activity on useful species, Table 4 (avena sativa (oats); 8 kg/ha): 0
activity on useful species, Table 4 (avena sativa (oats); 10 kg/ha): 0/1
activity on useful species, Table 4 (avena sativa (oats); 12 kg/ha): 0/1
activity on useful species, Table 4 (avena sativa (oats); 14 kg/ha): 1
activity on useful species, Table 4 ([4]; 1 kg/ha): 0
activity on useful species, Table 4 ([4]; 3 kg/ha): 0
activity on H, 0-4 scale ([4]; 6 kg/ha): 1
activity on useful species, Table 4 ([4]; 6 kg/ha): 1
activity on useful species, Table 4 ([4]; 8 kg/ha): 1
activity on useful species, Table 4 ([4]; 10 kg/ha): 1/2
activity on useful species, Table 4 ([4]; 12 kg/ha): 2
activity on useful species, Table 4 ([4]; 14 kg/ha): 2/3
damage to rice (rice [5]): without suffering any damage
inhibition of growth of the infestant (Echinocloa crus-galli): for all practical purposes be considered as total
herbicidal activity, Table 3 (setaria glauca L.; 1 kg/ha): 2/3
herbicidal activity, Table 3 (setaria glauca L.; 3 kg/ha): 3
activity on E, 0-4 scale (setaria glauca L.; 4 kg/ha): 3-4
activity on E, 0-4 scale (setaria glauca L.; 6 kg/ha): 4
herbicidal activity, Table 3 (setaria glauca L.; 6 kg/ha): 4
herbicidal activity, Table 3 (setaria glauca L.; 8 kg/ha): 4
herbicidal activity, Table 3 (setaria glauca L.; 10 kg/ha): 4
herbicidal activity, Table 3 (setaria glauca L.; 12 kg/ha): 4
herbicidal activity, Table 3 (setaria glauca L.; 14 kg/ha): 4
herbicidal activity, Table 3 (chenopodium album L.; 1 kg/ha): 0
activity on C, 0-4 scale (chenopodium album L.; 2 kg/ha): 0-1
herbicidal activity, Table 3 (chenopodium album L.; 3 kg/ha): 1
activity on C, 0-4 scale (chenopodium album L.; 4 kg/ha): 1-2
activity on C, 0-4 scale (chenopodium album L.; 6 kg/ha): 3
herbicidal activity, Table 3 (chenopodium album L.; 6 kg/ha): 3
herbicidal activity, Table 3 (chenopodium album L.; 8 kg/ha): 2/3
herbicidal activity, Table 3 (chenopodium album L.; 10 kg/ha): 3
herbicidal activity, Table 3 (chenopodium album L.; 14 kg/ha): 3/4
herbicidal activity, Table 3 (artemisia vulgaris L.; 1 kg/ha): 0
activity on B, 0-4 scale (artemisia vulgaris L.; 2 kg/ha): 0-1
herbicidal activity, Table 3 (artemisia vulgaris L.; 3 kg/ha): 1
activity on B, 0-4 scale (artemisia vulgaris L.; 4 kg/ha): 1-2
activity on B, 0-4 scale (artemisia vulgaris L.; 6 kg/ha): 3
herbicidal activity, Table 3 (artemisia vulgaris L.; 6 kg/ha): 3
herbicidal activity, Table 3 (artemisia vulgaris L.; 8 kg/ha): 3
herbicidal activity, Table 3 (artemisia vulgaris L.; 10 kg/ha): 3
herbicidal activity, Table 3 (artemisia vulgaris L.; 12 kg/ha): 4/3
herbicidal activity, Table 3 (artemisia vulgaris L.; 14 kg/ha): 4
activity on useful species, Table 4 (pisum sativum L. (pea); 1 kg/ha): 0
activity on useful species, Table 4 (pisum sativum L. (pea); 3 kg/ha): 0
activity on L, 0-4 scale (pisum sativum L. (pea); 6 kg/ha): 0
activity on useful species, Table 4 (pisum sativum L. (pea); 6 kg/ha): 0
activity on useful species, Table 4 (pisum sativum L. (pea); 8 kg/ha): 0
activity on useful species, Table 4 (pisum sativum L. (pea); 10 kg/ha): 0
activity on useful species, Table 4 (pisum sativum L. (pea); 12 kg/ha): 0
activity on useful species, Table 4 (pisum sativum L. (pea); 14 kg/ha): 0
